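Protocol summary: plate cells (96-well), add compound at 5 concentrations, incubate 48 h, interpolate endpoints linearly. The concentration for 50% growth inhibition is given as GI50.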 Active and inactive are the calls of the source. Cut-off read from the data, not from the text of the source: active = GI50 up to about 1.1 µM and inactive = higher.
What was measured:
Test in all cases: NCI-60 cell line screen, 48 h
EKVX = tested on: EKVX
COLO 205 = tested on: COLO 205
ACHN = tested on: ACHN
NCI-H460 = tested on: NCI-H460
IGROV-1 = tested on: IGROV-1
SK-MEL-2 = tested on: SK-MEL-2
CCRF-CEM = tested on: CCRF-CEM
MOLT-4 = tested on: MOLT-4
SR = tested on: SR
K562 = tested on: K562
SK-MEL-5 = tested on: SK-MEL-5
UACC-257 = tested on: UACC-257
TK-10 = tested on: TK-10
HCT-15 = tested on: HCT-15

Compound | GI50 (EKVX) | GI50 (COLO 205) | GI50 (ACHN) | GI50 (NCI-H460) | GI50 (IGROV-1) | GI50 (SK-MEL-2) | GI50 (CCRF-CEM) | GI50 (MOLT-4) | GI50 (SR) | GI50 (K562) | GI50 (SK-MEL-5) | GI50 (UACC-257) | GI50 (TK-10) | GI50 (HCT-15) [µM]
Oc1ccc(Br)cc1/C=N/c1ccc(Oc2ccc(/N=C/c3cc(Br)ccc3O)cc2)cc1 | > 19.6 µM (inactive) | > 19.6 µM (inactive) | > 19.6 µM (inactive) | > 19.6 µM (inactive) | > 19.6 µM (inactive) | > 19.6 µM (inactive) | > 19.6 µM (inactive) | > 19.6 µM (inactive) | > 19.6 µM (inactive) | > 19.6 µM (inactive) | > 19.6 µM (inactive) | > 19.6 µM (inactive) | > 19.6 µM (inactive) | –
CCCCCCCCCC(=O)OCC1OC(n2cc(F)c(=O)[nH]c2=O)C(NC(=O)OCc2ccccc2)C(OC(=O)CCCCCCCCC)C1O (stereo not drawn) | 31.6 µM (inactive) | 32.8 µM (inactive) | 58.7 µM (inactive) | > 10 µM (inactive) | > 100 µM (inactive) | 31 µM (inactive) | 21.8 µM (inactive) | 18.7 µM (inactive) | 17.5 µM (inactive) | 30.1 µM (inactive) | 20.3 µM (inactive) | 61.8 µM (inactive) | 80.9 µM (inactive) | 35.2
CCCCc1c2c([n+]([O-])c3c1CCCC3)CCCC2 | > 100 µM (inactive) | > 100 µM (inactive) | 5.12 µM (inactive) | > 100 µM (inactive) | 43.1 µM (inactive) | – | 19.3 µM (inactive) | 6.59 µM (inactive) | 29.6 µM (inactive) | 3.56 µM (inactive) | 28.4 µM (inactive) | 40.6 µM (inactive) | > 100 µM (inactive) | 21.6
Cc1nc2ccccc2c(=O)n1-c1ccccc1I | 70.6 µM (inactive) | > 100 µM (inactive) | > 100 µM (inactive) | > 100 µM (inactive) | > 100 µM (inactive) | > 100 µM (inactive) | > 100 µM (inactive) | > 100 µM (inactive) | > 100 µM (inactive) | 96.4 µM (inactive) | > 100 µM (inactive) | > 100 µM (inactive) | > 100 µM (inactive) | > 100
N#Cc1c2ccccc2c(Cc2ccc3c(c2)OCCOCCOCCOCCOCCO3)c2ccccc12 | 16.3 µM (inactive) | – | 9.86 µM (inactive) | 6.7 µM (inactive) | 4.34 µM (inactive) | 6.34 µM (inactive) | 3.21 µM (inactive) | 2.82 µM (inactive) | 24.5 µM (inactive) | 3.15 µM (inactive) | 4.35 µM (inactive) | 9.27 µM (inactive) | 5.01 µM (inactive) | 5.57
CC(=O)OC1OC2C(NC(=O)OC(C)(C)C)C1CC2(OCc1ccccc1)OCc1ccccc1 (stereo not drawn) | 34.7 µM (inactive) | 21.7 µM (inactive) | 22.4 µM (inactive) | 34.8 µM (inactive) | 27 µM (inactive) | 19.8 µM (inactive) | 18.3 µM (inactive) | 9.71 µM (inactive) | 17.8 µM (inactive) | 17 µM (inactive) | 17.6 µM (inactive) | 19.1 µM (inactive) | 17 µM (inactive) | 32.3
CN(C)CCC(/C=C/c1ccccc1)=N\Nc1ccc(Cl)cc1Cl | 15 µM (inactive) | 14.6 µM (inactive) | 12.7 µM (inactive) | 13.8 µM (inactive) | 8.02 µM (inactive) | 13.3 µM (inactive) | 10.5 µM (inactive) | 10.9 µM (inactive) | 7.57 µM (inactive) | 13.1 µM (inactive) | 13.4 µM (inactive) | 13.9 µM (inactive) | 14.2 µM (inactive) | 11.9
Cc1cc2nc3c(C(OC4OC(CO)C(O)C(O)C4O)C(O)CO)nn(-c4ccc(F)cc4)c3nc2cc1C (stereo not drawn) | > 100 µM (inactive) | – | > 100 µM (inactive) | > 100 µM (inactive) | – | – | > 100 µM (inactive) | > 100 µM (inactive) | > 100 µM (inactive) | > 100 µM (inactive) | – | > 100 µM (inactive) | > 100 µM (inactive) | > 100
Cc1n[nH]c(=S)n(C)c1=S | 56.1 µM (inactive) | > 100 µM (inactive) | > 100 µM (inactive) | > 100 µM (inactive) | > 100 µM (inactive) | > 100 µM (inactive) | > 100 µM (inactive) | > 100 µM (inactive) | – | > 100 µM (inactive) | – | – | > 100 µM (inactive) | > 100
COc1ccccc1C12OC(=O)C1(C)Oc1ccccc1C2=O (stereo not drawn) | > 100 µM (inactive) | > 100 µM (inactive) | > 100 µM (inactive) | > 100 µM (inactive) | > 100 µM (inactive) | > 100 µM (inactive) | > 100 µM (inactive) | > 100 µM (inactive) | – | > 100 µM (inactive) | > 100 µM (inactive) | > 100 µM (inactive) | > 100 µM (inactive) | > 100
N#Cc1c(C[n+]2ccccc2)c2ccccc2oc1=O | > 100 µM (inactive) | > 100 µM (inactive) | > 100 µM (inactive) | > 100 µM (inactive) | > 100 µM (inactive) | > 100 µM (inactive) | > 100 µM (inactive) | > 100 µM (inactive) | > 100 µM (inactive) | > 100 µM (inactive) | > 100 µM (inactive) | > 100 µM (inactive) | – | > 100
FC(F)(F)c1ccc(C2SCc3nc4ccccc4n32)cc1 (stereo not drawn) | 29.7 µM (inactive) | > 100 µM (inactive) | 39.2 µM (inactive) | – | 14.2 µM (inactive) | > 100 µM (inactive) | 31.4 µM (inactive) | 12.1 µM (inactive) | 16.2 µM (inactive) | 3.75 µM (inactive) | 11.5 µM (inactive) | 6.56 µM (inactive) | > 100 µM (inactive) | –
CN(C)C(=S)/N=c1\ssc(=S)n1Cc1ccncc1 | 22.8 µM (inactive) | > 100 µM (inactive) | 29.8 µM (inactive) | 13.8 µM (inactive) | 17.9 µM (inactive) | 17.2 µM (inactive) | 5.81 µM (inactive) | 14 µM (inactive) | 6.28 µM (inactive) | 18.3 µM (inactive) | 4.78 µM (inactive) | 26.7 µM (inactive) | 25 µM (inactive) | 17.5
O=[N+]([O-])c1ccc2nc(/C(=N/Nc3ccccc3)C(O)c3ccc(C(O)/C(=N\Nc4ccccc4)c4nc5ccc([N+](=O)[O-])cc5nc4O)cc3)cnc2c1 (stereo not drawn) | > 100 µM (inactive) | > 100 µM (inactive) | 18 µM (inactive) | 18.1 µM (inactive) | > 100 µM (inactive) | 43.8 µM (inactive) | 39.6 µM (inactive) | 75.3 µM (inactive) | 33.7 µM (inactive) | 13.6 µM (inactive) | 24.8 µM (inactive) | > 100 µM (inactive) | > 100 µM (inactive) | –
CC1(C)C(=O)C(=Cc2ccco2)C1=O | > 100 µM (inactive) | > 100 µM (inactive) | > 100 µM (inactive) | > 100 µM (inactive) | > 100 µM (inactive) | > 100 µM (inactive) | > 100 µM (inactive) | > 100 µM (inactive) | > 100 µM (inactive) | > 100 µM (inactive) | > 100 µM (inactive) | > 100 µM (inactive) | > 100 µM (inactive) | > 100
COc1cc([C@@H]2c3cc4c(cc3[C@@H](NC(=O)c3ccc([N+](=O)[O-])cc3)C3COC(=O)[C@@H]32)OCO4)cc(OC)c1O (stereo partly drawn) | 0.975 µM (active) | 2.13 µM (inactive) | 0.194 µM (active) | < 0.01 µM (active) | 0.261 µM (active) | 2.83 µM (inactive) | 0.124 µM (active) | < 0.01 µM (active) | – | 0.889 µM (active) | 0.361 µM (active) | 3.16 µM (inactive) | 2.03 µM (inactive) | 1.57
NC1=NN(c2ccccc2)C(=O)C1/C(=N\NC(=O)c1cc2ccccc2cc1O)C(=O)Nc1ccc(Cl)cc1 (stereo not drawn) | 22.8 µM (inactive) | 23.1 µM (inactive) | 26 µM (inactive) | 13.5 µM (inactive) | 20 µM (inactive) | 23.2 µM (inactive) | 3.73 µM (inactive) | 6.78 µM (inactive) | – | 10.1 µM (inactive) | 24.7 µM (inactive) | 28.6 µM (inactive) | 37.1 µM (inactive) | 10.5
O=C(NC1C2CC3CC(C2)CC1C3)/C(Cl)=C1/Sc2ccccc2NC1=O (stereo not drawn) | > 100 µM (inactive) | > 100 µM (inactive) | > 95.9 µM (inactive) | > 89.9 µM (inactive) | > 100 µM (inactive) | – | 29.5 µM (inactive) | 16.7 µM (inactive) | 44.5 µM (inactive) | 29.6 µM (inactive) | > 100 µM (inactive) | > 100 µM (inactive) | > 64.6 µM (inactive) | > 78.9
COc1ccc(N2C(=O)C3CC(c4ccc(Br)cc4)c4c([nH]c5ccccc45)C3C2=O)cc1 (stereo not drawn) | 16.9 µM (inactive) | 9.02 µM (inactive) | 4.51 µM (inactive) | 4.92 µM (inactive) | 10.6 µM (inactive) | 60.7 µM (inactive) | 8.59 µM (inactive) | 10.8 µM (inactive) | – | 5.37 µM (inactive) | 16.5 µM (inactive) | 17.3 µM (inactive) | 7.1 µM (inactive) | 90.6
COc1cc(/C=C/c2ccc(OC)c(O)c2)cc(OC)c1 | 9.66 µM (inactive) | 26.5 µM (inactive) | 7.52 µM (inactive) | 3.65 µM (inactive) | 18.7 µM (inactive) | 6.41 µM (inactive) | 3.15 µM (inactive) | 3.35 µM (inactive) | – | 2.43 µM (inactive) | 4.18 µM (inactive) | 5.86 µM (inactive) | 37.3 µM (inactive) | 3.94
COc1ccc(/C=C\c2cc(OC)c(OC)c(OC)c2)cc1 | 0.00264 µM (active) | 0.0291 µM (active) | 0.000653 µM (active) | < 0.01 µM (active) | 0.0387 µM (active) | < 0.01 µM (active) | 0.000269 µM (active) | 0.000506 µM (active) | < 0.01 µM (active) | 0.000102 µM (active) | < 0.0001 µM (active) | < 0.01 µM (active) | – | 0.000448
